From US20230219951A1, “PYRIDINE-PYRIMIDINE DERIVATIVE, PREPARATION METHOD THEREFOR AND PHARMACEUTICAL USE THEREOF” (Jiangsu Hengrui Pharmaceuticals Co., Ltd., priority 2020, published 2023) come the findings set out here.

One test concerns the target T1, CYP2C19 (Homo sapiens, UniProt P33261).
T1 construct: tissue Corning Gentest 452161; host or cells: human liver microsomes
Briefly: Human liver microsome CYP450 inhibition, CYP2C19 (S)-mephenytoin 4'-hydroxylation. It counts as in vitro ADME. Conditions: human liver microsomes, (S)-mephenytoin probe substrate. On the procedure:
The inhibition effect of the compounds of the present disclosure on the human liver microsome CYP450 enzyme was determined by the following method:
An appropriate amount of human liver microsome stock solution (20 mg/mL) was diluted to obtain a 0.25 mg/mL microsome solution with 7.5 mM MgC12 solution for later use (prepared right before use).
b. An appropriate amount of the stock solution was precisely pipetted, and diluted into series solution I at the concentrations of 10 mM, 3 mM, 1 mM, 0.3 mM, 0.03 mM and 0.003 mM with an appropriate amount of DMSO solution. An appropriate amount of the above series solution I was precisely pipetted, and diluted to obtain series solution II at the concentrations of 3 mM, 1 mM, 0.3 mM, 0.1 mM, 0.03 mM, 0.003 mM and 0.0003 mM with an appropriate amount of acetonitrile. An appropriate amount of the above series solution II was precisely pipetted, and diluted with PBS to obtain a working solution at the concentrations of 150 μM, 50 μM, 15 μM, 5μM, 1.5 μM, 0.15 μM and 0.015 μM for later use.
a. […]
The values were calculated by Graphpad Prism to obtain the IC50 values for the inhibition of drugs on CYP2C19 (S)-mephenytoin 4′-hydroxylation and CYP3A4M midazolam 1-hydroxylation metabolism in human liver microsomes, as shown in Table 6.
A general note: Liver microsomes are a subcellular fraction often used to study metabolism.

The target of test [1] is T2, interaction between the KRAS protein subtype G12V and the SOS1 protein (Homo sapiens, UniProt Q07889).
T2 construct: GST-TEV-SOS1(564-1049) (Viva Biotech, SOS1-191010); purchased SOS1: Viva Biotech; KRAS: Shanghai Panchao Biotechnology Co., Ltd. SOS1-191010
T2 sequence (Q07889 564-1049): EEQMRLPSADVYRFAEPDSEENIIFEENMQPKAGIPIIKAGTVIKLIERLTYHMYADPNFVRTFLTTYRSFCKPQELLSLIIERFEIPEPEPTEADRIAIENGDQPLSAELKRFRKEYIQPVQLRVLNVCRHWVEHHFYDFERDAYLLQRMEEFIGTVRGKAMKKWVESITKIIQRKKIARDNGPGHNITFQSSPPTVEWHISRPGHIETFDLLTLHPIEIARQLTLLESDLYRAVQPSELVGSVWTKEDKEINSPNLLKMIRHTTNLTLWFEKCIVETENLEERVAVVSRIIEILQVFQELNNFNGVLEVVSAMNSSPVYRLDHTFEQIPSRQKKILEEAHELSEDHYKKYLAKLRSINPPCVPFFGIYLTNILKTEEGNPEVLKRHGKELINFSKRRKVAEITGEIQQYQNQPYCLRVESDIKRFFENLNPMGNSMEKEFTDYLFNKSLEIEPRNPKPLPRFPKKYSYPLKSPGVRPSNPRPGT
Briefly: Inhibition of the interaction between KRAS G12V and SOS1 protein (AlphaLISA/AlphaScreen). It counts as binding. Conditions: KRAS G12V + GST-TEV-SOS1(564-1049) + GDP. In short, it runs like this: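 Biotinylated KRAS G12D or G12V preincubated with SOS1 and GDP, then with compound (10-point 5-fold series from 40 μM) for 30 min at room temperature in PBS, 0.1% BSA, 0.05% Tween 20. Glutathione acceptor/streptavidin donor beads added for 60 min; Alpha signal read and IC50 calculated.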
In general terms: Alpha assays give light when donor and acceptor beads are brought close together.

Bounds are passed on as bounds.

Usually IC50 stands for the midpoint of a concentration-inhibition curve.

T1 sequence (P33261 whole entry): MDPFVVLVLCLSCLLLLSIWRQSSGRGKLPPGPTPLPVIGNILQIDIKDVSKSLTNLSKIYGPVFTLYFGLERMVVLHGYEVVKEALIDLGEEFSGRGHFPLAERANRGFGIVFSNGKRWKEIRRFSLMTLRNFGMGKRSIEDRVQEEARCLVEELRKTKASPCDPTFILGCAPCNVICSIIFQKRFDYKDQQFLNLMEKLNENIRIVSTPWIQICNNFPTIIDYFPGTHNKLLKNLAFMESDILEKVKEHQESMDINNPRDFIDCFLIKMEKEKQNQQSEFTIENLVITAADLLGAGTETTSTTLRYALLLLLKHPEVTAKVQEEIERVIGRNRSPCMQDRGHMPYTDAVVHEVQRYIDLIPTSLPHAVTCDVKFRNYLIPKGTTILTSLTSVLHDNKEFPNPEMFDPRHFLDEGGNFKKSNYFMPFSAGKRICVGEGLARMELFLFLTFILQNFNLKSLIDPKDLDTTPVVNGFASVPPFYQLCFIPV

With `Cc1nc(N[C@H](C)c2cccc(C(F)F)c2F)c2cc([C@]3(O)CC[C@@H](O)CC3)c(=O)[nH]c2n1` [Example 18-p1, 4-(((R)-1-(3-(difluoromethyl)-2-fluorophenyl)ethyl)amino)-6-((1s,4S)-1,4-dihydroxycyclohexyl)-2-methylpyrido[2,3-d]pyrimidin-7(8H)-one], the IC50 was above 30 µM on CYP2C19 and 67 nM in test [1].
